Measured values: patent US11191820B2, “Method for inducing early T memory response with short peptides anti-tumor vaccine” (OSE IMMUNOTHERAPEUTICS, priority 2015, dated 2021)
Marks after values point to notes of the source that are not given here.

How the values were obtained:
Assay type in all cases: in vivo, human
central memory T cells [1] = test: Cultured IFN-γ ELISPOT after 10-day in vitro stimulation of PBMC, phase 1/2 NSCLC trial of OSE-2101; design: key to net SFC of vaccine positive CTL responses: —, indicates SFC response did not meet criteria and vaccine response was negative
Protocol: (§1) Clinical study design. Both trials were designed as phase 1/2, open label, multi-center, single dose, multiple administration studies to evaluate the safety and immunogenicity of the OSE-2101 immunotherapy. Patients were treated with 1 ml OSE-2101 every 3 weeks for a total of six doses. Each dose was administered subcutaneously in the same vicinity in the deltoid or upper thigh region, or at a contralateral site if local side-effects were observed. The study duration for each completed patient was 18 weeks. Clinical responses or patient survival were not measured in either phase 1/2 studies.
(§2) Clinical sample processing. Blood or leukapheresis product was obtained from patients at the pre-treatment, the Week 9 and Week 18 time points, 3 weeks after the third and sixth dose of OSE-2101 respectively. Peripheral blood mononuclear cells (PBMC) were isolated from samples within 24 hours of collection using a FICOLL-PAQUE density gradient and cryopreserved in containers designed to ensure optimal freezing (Mr. Frosty, Nalgene). For use, cells were rapidly thawed at 37° C. then transferred to human AB serum-containing medium for work-up.
(§3) Measurement of central T memory cells responses and T effector memory cells. The CTL responses in 16 total patients (10 colon and six NSCLC) were monitored for CTL responses against each epitope and against the wild-type epitope of epitopes analogs. For each patient, the pre-treatment, Week 9 and Week 18 time points were batch-tested in the same experiment to allow pre- versus post-treatment response comparison in the same experiment. Central T memory cells responses were measured using an IFN-γ enzyme-linked immunospot (cultured ELISPOT) assay following in vitro stimulation of PBMC for 10 days with each vaccine epitope. Briefly, PBMC from each time point were stimulated on day 0 with 10 μg/ml of each epitope individually in replicate in 48-well culture plates (2×10^6 PBMC/well). All cultures were fed with rIL-2 (Endogen, Woburn, Mass.; 10 U/ml final concentration) on days 1, 4 and 7. Ten days after initiation of culture, cells were harvested and tested for activity against specific vaccine peptides and corresponding wild-type peptides of vaccine analogs in the T memory ELISPOT assay. Cells were tested in Millipore IP 96-well plates pre-coated with mouse anti-human IFN-γ antibody (Mabtech USA, Cincinnati, Ohio). Five×10^4 cells and 1.25×10^4 cells from each culture were plated in triplicate wells together with 10^5 irradiated autologous PBMC and 10 μg/ml peptide. As a control, CTL were also tested against an irrelevant HLA-A2.1-binding HBV peptide. After 20 hours incubation, T memory ELISPOT plates were developed by performing sequential incubations with biotinylated anti-human IFN-γ antibody (Mabtech USA), Avidin-Peroxidase Complex (APC, Vector Laboratories, Burlingame, Calif.), and 3-amino-9-ethyl carbazole (AEC) substrate (Sigma Aldrich, St. Louis, Mo.). Spot-forming cells (SFC) were enumerated using a computer-assisted image analysis system (Zeiss KS ELISPOT Reader, Carl Zeiss MicroImaging, Thornwood, N.J.). Data is reported as the net SFC per 5×10^4 cells after subtracting spots induced with the irrelevant HBV peptide.

central memory T cells [2] = test: Cultured IFN-γ ELISPOT after 10-day in vitro stimulation of PBMC, phase 1/2 colon cancer trial of OSE-2101; design: key to net SFC of vaccine positive CTL responses: —, indicates SFC response did not meet criteria and vaccine response was negative; conditions: for Mean SFC: 10 colon patients
Protocol: as §1, §2, §3

central memory T cells [3] = test: Central memory T cell cultured ELISPOT, phase 2 trial in advanced NSCLC
Protocol: CTL Immune responses measured though cultured Elispot. The immunogenicity was measured in Phase 2 clinical trial on cryopreserved PBMC from each test sample were thawed in 5% human culture medium (RPMI-1640 medium with 25 mM HEPES, supplemented with 5% human AB serum, 4 mM L-glutamine, 0.5 mM sodium pyruvate, 0.1 mM MEM non-essential amino acids, 100 μg/ml streptomycin, and 100 U/ml penicillin) containing 30 μg/ml DNAase. After centrifugation for 5 minutes at 1200 rpm, the cell pellets were resuspended in 5% human culture medium and washed 2 times. For the central Memory T cell cultured ELISPOT assay, 2×10^6/ml PBMC were placed in replicate wells in a 48-well plates and stimulated for 10 days with 10 μg/ml of each peptide. As a positive control, PBMC were also stimulated with a pool of recall viral peptides. Human rIL2 (10 U/ml) was added to the peptide-stimulated cultures at day 1, day 4 and day 7. After 10 days the stimulated cells were harvested and plated at a concentration of 5×10^4/well. Assay wells also received irradiated autologous PBMC (1×10^5/well) and 10 μg/ml peptide, either the vaccine peptide, irrelevant peptide or positive control peptides. Cells stimulated in vitro with each analog epitope were also tested against the corresponding wild-type epitope.
Data analysis and acceptance criteria. Mean and standard deviation (SD) of spots in replicate wells were calculated in all assays by transferring raw ELISPOT data from each experiment to an Excel-based computer program. Positive vaccine-induced T-cell responses were determined according to the criteria described below.
Acceptance Criteria for peptide-Induced specific T-cell response through central memory T cells: The positive criteria for CTL responses used in the phase 2 trial was identical to the criteria in the phase 1/2 trials which was established prospectively after analyzing the variability of pre-treatment responses in patients against each vaccine epitope and the irrelevant HBV control epitope. A positive peptide-induced CTL/T memory response to a given epitope met all of the following conditions: 1) was greater than 5 SFC above the irrelevant epitope response, 2) was greater than the mean SFC of the irrelevant epitope response, plus 2 SD, and 3) was two-fold greater than the SFC response in the pre-vaccination sample from the same patient, plus 2 SD. The inclusion of “plus two standard deviations” was used to accommodate the assay variability and served to increase the criteria stringency.

Sequence: LLTFWNPPV [CEA.24V9 A]
- No. Positive Responses (central memory T cells [1]; 6 NSCLC patients, Week 9): 0
- Mean SFC (central memory T cells [1]; 6 NSCLC patients, Week 18): 34.3 SFC per 50,000 cells
- No. Positive Responses (central memory T cells [1]; 6 NSCLC patients, Week 18): 2
- net SFC of vaccine positive CTL responses (central memory T cells [1]; NSCLC patient 201, Week 9): —
- net SFC of vaccine positive CTL responses (central memory T cells [1]; NSCLC patient 201, Week 18): —
- net SFC of vaccine positive CTL responses (central memory T cells [1]; NSCLC patient 502, Week 9): —
- net SFC of vaccine positive CTL responses (central memory T cells [1]; NSCLC patient 502, Week 18): —
- net SFC of vaccine positive CTL responses (central memory T cells [1]; NSCLC patient 504, Week 9): —
- net SFC of vaccine positive CTL responses (central memory T cells [1]; NSCLC patient 504, Week 18): 25.3^d) SFC per 50,000 cells
- net SFC of vaccine positive CTL responses (central memory T cells [1]; NSCLC patient 505, Week 9): —
- net SFC of vaccine positive CTL responses (central memory T cells [1]; NSCLC patient 505, Week 18): —
- net SFC of vaccine positive CTL responses (central memory T cells [1]; NSCLC patient 532, Week 9): —
- net SFC of vaccine positive CTL responses (central memory T cells [1]; NSCLC patient 532, Week 18): 43.3 SFC per 50,000 cells
- net SFC of vaccine positive CTL responses (central memory T cells [1]; NSCLC patient 651, Week 9): —
- net SFC of vaccine positive CTL responses (central memory T cells [1]; NSCLC patient 651, Week 18): —
- Mean SFC (central memory T cells [2]; Week 9): 86.5 SFC per 50,000 cells
- Mean SFC (central memory T cells [2]; Week 18): 172.0 SFC per 50,000 cells
- net SFC of vaccine positive CTL responses (central memory T cells [2]; colon patient 551, Week 9): 42.7^d) SFC per 50,000 cells
- net SFC of vaccine positive CTL responses (central memory T cells [2]; colon patient 551, Week 18): —
- net SFC of vaccine positive CTL responses (central memory T cells [2]; colon patient 601, Week 9): 118.0 SFC per 50,000 cells
- net SFC of vaccine positive CTL responses (central memory T cells [2]; colon patient 601, Week 18): 96.0 SFC per 50,000 cells
- net SFC of vaccine positive CTL responses (central memory T cells [2]; colon patient 602, Week 9): —
- net SFC of vaccine positive CTL responses (central memory T cells [2]; colon patient 602, Week 18): —
- net SFC of vaccine positive CTL responses (central memory T cells [2]; colon patient 603, Week 9): 63.0 SFC per 50,000 cells
- net SFC of vaccine positive CTL responses (central memory T cells [2]; colon patient 603, Week 18): 20.7 SFC per 50,000 cells
- net SFC of vaccine positive CTL responses (central memory T cells [2]; colon patient 604, Week 9): 55.3 SFC per 50,000 cells
- net SFC of vaccine positive CTL responses (central memory T cells [2]; colon patient 604, Week 18): 187.0 SFC per 50,000 cells
- net SFC of vaccine positive CTL responses (central memory T cells [2]; colon patient 605, Week 9): 43.7 SFC per 50,000 cells
- net SFC of vaccine positive CTL responses (central memory T cells [2]; colon patient 605, Week 18): 109.7 SFC per 50,000 cells
- net SFC of vaccine positive CTL responses (central memory T cells [2]; colon patient 606, Week 9): —
- net SFC of vaccine positive CTL responses (central memory T cells [2]; colon patient 606, Week 18): —
- net SFC of vaccine positive CTL responses (central memory T cells [2]; colon patient 607, Week 9): 196.7 SFC per 50,000 cells
- net SFC of vaccine positive CTL responses (central memory T cells [2]; colon patient 607, Week 18): 586.7 SFC per 50,000 cells
- net SFC of vaccine positive CTL responses (central memory T cells [2]; colon patient 608, Week 9): —
- net SFC of vaccine positive CTL responses (central memory T cells [2]; colon patient 608, Week 18): —
- net SFC of vaccine positive CTL responses (central memory T cells [2]; colon patient 609, Week 9): —
- net SFC of vaccine positive CTL responses (central memory T cells [2]; colon patient 609, Week 18): 31.7 SFC per 50,000 cells
- % of patients with positive CTL/central memory T cell response (central memory T cells [3]; phase 2, month 9): 57%
- patients with positive CTL/central memory T cell response / patients tested (central memory T cells [3]; phase 2, month 9): 4/7
- % of patients with positive CTL/central memory T cell response (central memory T cells [3]; phase 2, month 12): 50%
- patients with positive CTL/central memory T cell response / patients tested (central memory T cells [3]; phase 2, month 12): 2/4
- % of patients with positive CTL/central memory T cell response (central memory T cells [3]; phase 2, week 9): 39%
- patients with positive CTL/central memory T cell response / patients tested (central memory T cells [3]; phase 2, week 9): 13/33
- % of patients with positive CTL/central memory T cell response (central memory T cells [3]; phase 2, week 18): 31%
- patients with positive CTL/central memory T cell response / patients tested (central memory T cells [3]; phase 2, week 18): 10/32
- % of patients with positive CTL/central memory T cell response (central memory T cells [3]; phase 2, week 30): 28%
- patients with positive CTL/central memory T cell response / patients tested (central memory T cells [3]; phase 2, week 30): 9/23
